Values quoted from earlier work in US20230381197A1, “COMPOSITIONS FOR NON-SURGICAL PREVENTION OF BOAR TAINT AND […]” (Insigna Inc., priority 2022, published 2023).

Tested on: Sertoli cells
Conditions: young male pigs

## N#Cc1ccc(C(c2ccc(C#N)cc2)n2cncn2)cc1 [Letrozole]
  duration of Sertoli cell proliferation and testis size: highly significant increase

## C[C@]12CC[C@@H]3c4ccc(O)cc4C[C@@H](CCCCCCCCC[S+]([O-])CCCC(F)(F)C(F)(F)F)[C@H]3[C@@H]1CC[C@@H]2O (some centres unmarked) [ICI 182,780]
  duration of Sertoli cell proliferation and testis size: highly significant increase
